“And” between values parts separate entries of the source, which are not always exact repeats. Identical values can stand only once. Inconclusive results and toxic doses are left out. The calls were made as follows: active = survival T/C of 150% or more; inactive = T/C below 125% in these data.
Test system: P388 leukemia ip, CD2F1 mice, survival T/C
Test: NCI In Vivo Anticancer Drug Screen. Data for tumor model P388 Leukemia (intraperitoneal) in CD2F1 (CDF1) mice
Details: endpoint: median survival time, higher = longer survival
Outline: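 Mice carrying the transplanted tumor received test compound or vehicle. Survival was recorded in each group, and the value is the treated-group measurement divided by that of the vehicle-treated control group.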

[1] = dose: 3.12 mg/kg/injection, schedule: Q01DX009 (ip), vehicle: DMSO
[2] = dose: 100.0 mg/kg/injection, schedule: Q04DX003 (ip), vehicle: saline
[3] = dose: 200.0 mg/kg/injection, schedule: Q04DX003 (ip), vehicle: saline
[4] = dose: 50.0 mg/kg/injection, schedule: Q01DX005 (ip), vehicle: saline with Tween-80
[5] = dose: 100.0 mg/kg/injection, schedule: Q01DX005 (ip), vehicle: saline with Tween-80
[6] = dose: 200.0 mg/kg/injection, schedule: Q01DX005 (ip), vehicle: saline with Tween-80
[7] = dose: 50.0 mg/kg/injection, schedule: Q01DX009 (ip), vehicle: saline
[8] = dose: 100.0 mg/kg/injection, schedule: Q01DX009 (ip), vehicle: saline
[9] = dose: 200.0 mg/kg/injection, schedule: Q01DX009 (ip), vehicle: saline
[10] = dose: 60.0 mg/kg/injection, schedule: Q01DX005 (ip), vehicle: saline with Tween-80
[11] = dose: 120.0 mg/kg/injection, schedule: Q01DX005 (ip), vehicle: saline with Tween-80
[12] = dose: 240.0 mg/kg/injection, schedule: Q01DX005 (ip), vehicle: saline with Tween-80
[13] = dose: 100.0 mg/kg/injection, schedule: Q04DX003 (ip), vehicle: saline with Tween-80
[14] = dose: 200.0 mg/kg/injection, schedule: Q04DX003 (ip), vehicle: saline with Tween-80
[15] = dose: 400.0 mg/kg/injection, schedule: Q04DX003 (ip), vehicle: saline with Tween-80
[16] = dose: 7.5 mg/kg/injection, schedule: Q01DX005 (ip), vehicle: Klucel (hydroxypropylcellulose) (HPC)
[17] = dose: 240.0 mg/kg/injection, schedule: Q01DX005 (ip), vehicle: Klucel (hydroxypropylcellulose) (HPC)
[18] = dose: 50.0 mg/kg/injection, schedule: Q01DX005 (ip), vehicle: Klucel (hydroxypropylcellulose) (HPC)
[19] = dose: 100.0 mg/kg/injection, schedule: Q01DX005 (ip), vehicle: Klucel (hydroxypropylcellulose) (HPC)

Measured: T/C

CNC(=O)OC1/C(C)=C\C(C)C(O)C(OC)CC(C)CC2=C(OC)C(=O)C=C(C2=O)N(C)C(=O)/C(C)=C/C=C\C1OC (stereo unspecified)
inactive: [1] 110 % of control and 98 % of control | dose: 6.25 mg/kg/injection, schedule: Q01DX009 (ip), vehicle: DMSO 99 % of control and 109 % of control and 110 % of control | dose: 12.5 mg/kg/injection, schedule: Q01DX009 (ip), vehicle: DMSO 104 % of control and 122 % of control and 123 % of control | dose: 25.0 mg/kg/injection, schedule: Q01DX009 (ip), vehicle: DMSO 109 % of control and 115 % of control and 122 % of control

C[N+]1(C)N=C([O-])N(Cc2ccccc2)C1=O
inactive: [2] 118 % of control | [3] 106 % of control

CC(C)C1OCC(CCl)O1 (stereo unspecified)
inactive: [4] 104 % of control | [5] 100 % of control | [6] 104 % of control

CC(=O)OC1C(Br)C2CC1C1(Cl)C(=O)C(Cl)=C(Cl)C(=O)C21Cl (stereo unspecified)
inactive: [7] 99 % of control | [8] 101 % of control | [9] 99 % of control

COc1ccc(/C=N/NC(=S)NN)cc1
inactive: [10] 99 % of control | [11] 100 % of control | [12] 98 % of control

Cc1ccc(NC(=O)c2cc3ccccc3cc2O)c(C)c1.Cc1ccc(NC(=O)c2cc3ccccc3cc2O)c(C)c1.[Mn+2]
inactive: [7] 87 % of control | [8] 86 % of control | [9] 86 % of control

CSC(=NNC(N)=O)SC
inactive: [13] 100 % of control | [14] 102 % of control | [15] 102 % of control

C/C(=N\NC(=O)c1ccncc1)c1cccc(/C(C)=N/NC(=O)c2ccncc2)n1.CC(=O)[O-].CC(=O)[O-].[Zn+2]
inactive: dose: 12.5 mg/kg/injection, schedule: Q01DX005 (ip), vehicle: saline with Tween-80 110 % of control | dose: 25.0 mg/kg/injection, schedule: Q01DX005 (ip), vehicle: saline with Tween-80 104 % of control | [4] 88 % of control and 93 % of control

[N-]=[N+]=NC12CC3CC(CC(C3)C1)C2
inactive: [4] 100 % of control | [5] 101 % of control | [6] 106 % of control

O=C(O)c1cnc2c(C(F)(F)F)cccc2c1Nc1ccc2c(c1)OCO2
inactive: [16] 92 % of control | dose: 15.0 mg/kg/injection, schedule: Q01DX005 (ip), vehicle: Klucel (hydroxypropylcellulose) (HPC) 101 % of control | dose: 30.0 mg/kg/injection, schedule: Q01DX005 (ip), vehicle: Klucel (hydroxypropylcellulose) (HPC) 105 % of control | dose: 120.0 mg/kg/injection, schedule: Q01DX005 (ip), vehicle: Klucel (hydroxypropylcellulose) (HPC) 101 % of control | [17] 96 % of control

COc1ccc(CC(=O)c2ccc3c(c2O)C=CC(C)(C)O3)cc1OC
inactive: [4] 98 % of control | [5] 99 % of control | [6] 89 % of control

Cn1cnc([N+](=O)[O-])c1Sc1ccc(Cl)cc1
inactive: dose: 0.79 mg/kg/injection, schedule: Q01DX009 (ip), vehicle: saline with Tween-80 104 % of control | dose: 1.56 mg/kg/injection, schedule: Q01DX009 (ip), vehicle: saline with Tween-80 104 % of control | dose: 3.12 mg/kg/injection, schedule: Q01DX009 (ip), vehicle: saline with Tween-80 97 % of control

O=C(C=C(C(F)(F)F)C(F)(F)F)c1c2ccccc2cc2ccccc12
inactive: dose: 0.78 mg/kg/injection, schedule: Q01DX009 (ip), vehicle: DMSO 91 % of control | dose: 1.56 mg/kg/injection, schedule: Q01DX009 (ip), vehicle: DMSO 98 % of control | [1] 87 % of control and 89 % of control

O=C(Oc1ccc(OC(=O)c2ccc([N+](=O)[O-])cc2)cc1)c1ccccc1
inactive: dose: 50.0 mg/kg/injection, schedule: Q04DX003 (ip), vehicle: saline 101 % of control | dose: 100.0 mg/kg/injection, schedule: Q01DX001 (ip), vehicle: Klucel (hydroxypropylcellulose) (HPC) 95 % of control | [2] 95 % of control | dose: 200.0 mg/kg/injection, schedule: Q01DX001 (ip), vehicle: Klucel (hydroxypropylcellulose) (HPC) 95 % of control | [3] 102 % of control | dose: 400.0 mg/kg/injection, schedule: Q01DX001 (ip), vehicle: Klucel (hydroxypropylcellulose) (HPC) 101 % of control | dose: 400.0 mg/kg/injection, schedule: Q04DX003 (ip), vehicle: saline 96 % of control

CCCCCC(=O)C(C)(c1nc2n(c1O)/C(=N/C(=O)Nc1ccc(Cl)cc1)N=N2)c1nc2n(c1O)/C(=N/C(=O)Nc1ccc(Cl)cc1)N=N2
inactive: [10] 89 % of control | [11] 88 % of control | [12] 86 % of control

c1cc2c3c(cccc3c1)NN=N2
inactive: dose: 60.0 mg/kg/injection, schedule: Q01DX005 (ip), vehicle: Klucel + Tween-80 106 % of control | dose: 120.0 mg/kg/injection, schedule: Q01DX005 (ip), vehicle: Klucel + Tween-80 99 % of control | dose: 240.0 mg/kg/injection, schedule: Q01DX005 (ip), vehicle: Klucel + Tween-80 96 % of control

COc1ccc(OC)c2c1C(=O)C=CC2=O
inactive: dose: 1.56 mg/kg/injection, schedule: Q01DX001 (ip), vehicle: saline 108 % of control | dose: 3.13 mg/kg/injection, schedule: Q01DX001 (ip), vehicle: saline 110 % of control | dose: 6.25 mg/kg/injection, schedule: Q01DX001 (ip), vehicle: saline 108 % of control

COc1c2c(c(O)c3c4c(c(C)cc13)C1OC3(C(OC)OC5CC(C)(O)C(OC6CC(C)(O)C(O)C(C)O6)C(C)O5)OC1C(OC)(O4)C31CO1)C(=O)C(O)CC2OC1CC(C)(O)C(OC(C)=O)C(C)O1 (stereo unspecified)
active: dose: 0.06 mg/kg/injection, schedule: Q01DX005 (ip), vehicle: saline 158 % of control | dose: 0.13 mg/kg/injection, schedule: Q01DX005 (ip), vehicle: saline 155 % of control and 166 % of control

O=C1OCCC12C(c1ccccc1)C1(CCOC1=O)C2c1ccccc1 (stereo unspecified)
inactive: dose: 1.87 mg/kg/injection, schedule: Q01DX005 (ip), vehicle: Klucel (hydroxypropylcellulose) (HPC) 94 % of control | dose: 3.75 mg/kg/injection, schedule: Q01DX005 (ip), vehicle: Klucel (hydroxypropylcellulose) (HPC) 94 % of control | [16] 86 % of control | dose: 60.0 mg/kg/injection, schedule: Q01DX005 (ip), vehicle: Klucel (hydroxypropylcellulose) (HPC) 86 % of control | [17] 94 % of control

O=c1[nH]c(=O)n(C2CC(O)C(CO)O2)cc1S (stereo unspecified)
inactive: dose: 12.5 mg/kg/injection, schedule: Q01DX009 (ip), vehicle: saline 99 % of control and 101 % of control and 105 % of control | dose: 25.0 mg/kg/injection, schedule: Q01DX009 (ip), vehicle: saline 100 % of control (2×) and 111 % of control | [7] 101 % of control and 111 % of control and 118 % of control

COC(=O)C1=C(C)NC(c2ccc(OC)cc2OC)C(C(=O)OC)=C1C (stereo unspecified)
inactive: [10] 105 % of control | [11] 102 % of control | [12] 97 % of control

C[C@]12CC[C@@H]3c4ccc(OC(=O)Cc5ccc(N(CCCl)CCCl)cc5)cc4CC[C@H]3[C@@H]1CC[C@@H]2OC(=O)Cc1ccc(N(CCCl)CCCl)cc1
inactive: [13] 100 % of control | [14] 120 % of control | dose: 264.0 mg/kg/injection, schedule: Q04DX003 (ip), vehicle: saline with Tween-80 109 % of control | [15] 113 % of control
active: dose: 600.0 mg/kg/injection, schedule: Q04DX003 (ip), vehicle: saline with Tween-80 154 % of control

Cc1cc(=O)[nH]c2cc(O)c(C(=O)O)cc12
inactive: [18] 93 % of control | [19] 93 % of control | dose: 200.0 mg/kg/injection, schedule: Q01DX005 (ip), vehicle: Klucel (hydroxypropylcellulose) (HPC) 88 % of control

O=C1CC(c2ccccc2)C(c2ccccc2)C1 (stereo unspecified)
inactive: dose: 50.0 mg/kg/injection, schedule: Q01DX009 (ip), vehicle: Klucel (hydroxypropylcellulose) (HPC) 94 % of control | dose: 100.0 mg/kg/injection, schedule: Q01DX009 (ip), vehicle: Klucel (hydroxypropylcellulose) (HPC) 97 % of control | dose: 200.0 mg/kg/injection, schedule: Q01DX009 (ip), vehicle: Klucel (hydroxypropylcellulose) (HPC) 93 % of control

Cc1nn(C(N)=S)c(C)c1N=Nc1ccc(F)cc1
inactive: dose: 25.0 mg/kg/injection, schedule: Q01DX005 (ip), vehicle: Klucel (hydroxypropylcellulose) (HPC) 96 % of control | [18] 102 % of control | [19] 90 % of control

COC(=O)C1(CC(=O)c2ccc(Cl)cc2Cl)NC(=S)NC(=O)C1C#N (stereo unspecified)
inactive: [10] 91 % of control | [11] 92 % of control

From PubChem BioAssay AID330 (DTP/NCI, 2004)
